Assay results as given in patent US20060100179A1, “Compositions and methods for use in targeting vascular destruction” (priority 2002, published 2006).
pIC50: −log10 of the molar value. Like-named read-outs stand apart in the source and are kept apart here.

What was measured:
[1] = system: HDF (human neonatal dermal fibroblasts); test: Cell survival by clonogenic assay (colony count or MTT) in HDF
Description: (§1) Cell culture. Four commercially available human cell lines were grown in the indicated media below in 5% CO2, 80% humidity and 37EC: • 1. HL60 human leukemic cells, a pro-apoptotic cell line—cultured in RPMI 1640 fortified with 10% fetal calf serum. • 2. K562 human leukemic cells, an apoptotic-resistant cell line—cultured in RPMI 1640 fortified with 10% fetal calf serum. • 3. Human neonatal microvascular endothelial cells (HMVEC)—cultured in medium 131+microvascular growth supplement (MVGS)+attachment factor (AF)=500 ml+25 ml (AF is added 2-3 ml/T-25 flask; all reagents supplied by Cascade Biologics, Inc., Portland, Oreg.). • 4. Human neonatal dermal fibroblasts (HDF)—cultured in medium 106+low serum growth supplement (LSGS)=500 ml+10 ml (Cascade Biologics, Inc.).
(§2) Cell survival by clonogenic assay. This assay is based on a description reported by Schweitzer et al. (Expt. Haematol. 21: 573-578, 1993) with slight modifications. […] After 5 days of incubation under the standard culture conditions stated above, colonies (>40 cells) were counted by an inverted light microscope or estimated by MTT assay. IC50 values were obtained from the fitted curves of percentage of the control versus the drug concentrations.
Experiment 1. HLGO, K562, HDF, and HMVEC cells were either cultured in 96-well plates at the indicated concentrations (FIGS. 2A and 2B) for 5 days in the presence of A4 prodrug, or after 2 hours exposure the drug-containing media was removed, fresh media added, and the cells cultured for an additional 5 days. Clonogenic growth was recorded after 5 days incubation for all treatments.
Experiment 2. HMVEC and HDF were cultured in 96-well microtiter plates initially containing 800 cells/well. The cells were cultured for 1 hour in the presence of the indicated concentrations of A4 prodrug ∀1 unit of alkaline phosphatase. The medium was removed, the cells washed, and fresh medium added, and the cells were incubated for an additional 5 days. Clonogenic growth was then established by the MTT assay.
(§3) The combretastatins are a family of naturally occurring tubulin binding agents comprising an A-,B-,C- and D- series of structures (U.S. Pat. Nos. 4,940,726; 4,996,237; 5,409,953; and 5,569,786). […] The compounds were added to microcultures in DMSO (i.e <0.5%) and toxicity was evaluated by MTT assay after 5-7 days in culture.
All of the compounds were evaluated for toxicity after a one-hour exposure in microculture and assayed for cytotoxicity by MTT assay after an additional 5 days' incubation in culture.

[2] = system: HMVEC (human neonatal microvascular endothelial cells); test: Cell survival by clonogenic assay (colony count or MTT) in HMVEC; conditions: for clonogenic toxicity to HMVEC after 1 hour exposure versus 6 hours: 1 and 6 hours exposure, washed, 3 more days, MTT assay (FIG. 5); for clonogenic cytotoxicity, HMVEC, limited exposure: exposure limited to 2 hours, clonogenic cytotoxicity estimated at 5 days (FIG. 2A)
Description: as §1
as §2, with “concentrations. […]” for “concentrations.”
as §3, with “culture. […]” for “culture.”

[3] = system: HL60 human leukemic cells; test: Cell survival by clonogenic assay in HL-60; format: cell-based
Source text: (§4) Cell survival by clonogenic assay.

[4] = system: K562 human leukemic cells; test: Cell survival by clonogenic assay in K562; format: cell-based; conditions: 5 days exposure (FIG. 2B); read-out: IC50 clonogenic cytotoxicity, K562
Source text: as §4

[5] = system: ocular vessels; test: Ocular neovascularization induced by lipid hydroperoxide (LHP) in rabbit eyes; format: in vivo; conditions: i.v. 40 mg/kg once a day for five days, eyes examined seven days later
Description: To simulate pathogenic ocular angiogenesis, ocular neovascularization was induced by administration of lipid hydroperoxide (LHP) by intra-corneal injection at a dosage of 30 μg to rabbit eyes. Seven to 14 days later, ocular vessels formed in the injected eyes due to LHP insult. The subjects were divided into two groups; those of one group were given combretastatin A4 disodium phosphate by intravenous administration at a dosage of 40 mg/kg once a day for five days, while a vehicle without combretastatin A4 disodium phosphate was administered to the other group by i.v. administration as a dosage of water for the same time period. The eyes of both groups were examined seven days later.

[6] = read-out: IC50 clonogenic toxicity values, HDF, compounds added in DMSO (<0.5%), MTT assay after 5-7 days in culture
[7] = read-out: IC50 values HDF, one-hour exposure, MTT assay after additional 5 days' incubation
[8] = read-out: IC50 clonogenic toxicity values, HMVEC, compounds added in DMSO (<0.5%), MTT assay after 5-7 days in culture
[9] = read-out: IC50 values HMVEC, one-hour exposure, MTT assay after additional 5 days' incubation
[10] = compounds added in DMSO (<0.5%), MTT assay after 5-7 days in culture, read-out: IC50 clonogenic toxicity values, HL-60

Compound | pIC50 [1, 6] | pIC50 [1, 7] | pIC50 [2, 8] | pIC50 [2, 9] | pIC50 [3, 10] | also measured
COc1ccc(/C=C\c2cc(OC)c(OC)c(OC)c2)c(O)c1O [Combretastatin A1] | 7.70 | 6.00 to 6.30 | 6.30 | 4.82 to 5.00 | – | clonogenic toxicity to HMVEC after 1 hour exposure versus 6 hours [2]: did not induce maximum toxicity
COc1ccc(/C=C\c2cc(OC)c3c(c2)OCO3)cc1O [Combretastatin A2, reference compound] | 7.46 to 7.60 | – | 7.40 to 7.52 | – | 7.82 | –
COc1ccc(/C=C\c2cc(O)c(OC)c(OC)c2)cc1O [Combretastatin A3, reference compound] | 8.00 to 8.10 | – | < 7.92 | – | 8.30 | –
COc1ccc(/C=C\c2cc(OC)c(OC)c(OC)c2)cc1OP(=O)([O-])[O-].[Na+].[Na+] [Combretastatin A4 Na2PO4, combretastatin A4 disodium phosphate] | – | < 6.30 | – | 6.82 to 7.12 | – | cytotoxicity to HDF with added alkaline phosphatase, compared with HMVEC ([1]; 1 hour exposure, 1 unit alkaline phosphatase added (FIG. 3)): the same for HMVEC and HDF; cytotoxicity to HDF without added alkaline phosphatase ([1]; 1 hour exposure, no added alkaline phosphatase (FIG. 3)): lack of cytotoxicity; pIC50 ([1]; read-out: IC50 clonogenic cytotoxicity, HDF, 5 days exposure (FIG. 2B)): 8.60 to 8.82; clonogenic cytotoxicity, HMVEC, limited exposure [2]: only HMVEC showed IC50 cytotoxicity; clonogenic cytotoxicity, HMVEC, limited exposure ([2]; listed as A4 prodrug): quite sensitive; pIC50 ([2]; read-out: IC50 clonogenic cytotoxicity, HMVEC, 5 days exposure (FIG. 2B)): 8.60 to 8.82; pIC50 ([3]; 5 days exposure (FIG. 2B), read-out: IC50 clonogenic cytotoxicity, HL60): 8.60 to 8.82; pIC50 [4]: 8.60 to 8.82; reduction of vessels [5]: ≥ 40%
COc1ccc(/C=C\c2cc(OC)c(OC)c(OC)c2)cc1O [Combretastatin A4] | 8.70 to 9.00 | 7.30 | 8.70 to 9.00 | 6.82 to 7.12 | 8.70 to 9.00 | –
COc1ccc(CCc2cc(OC)c(OC)c(OC)c2)c(O)c1O [Combretastatin B1, reference compound] | 6.52 to 6.70 | – | 6.52 to 6.70 | – | 6.30 | –
COc1ccc(CCc2cc(O)c(OC)c(OC)c2)cc1O [Combretastatin B2, reference compound] | 5.96 | – | 6.00 to 6.10 | – | 6.90 | –
O=C1N[C@H]2[C@H](O)[C@H](O)[C@@H](O)[C@H](O)[C@@H]2c2cc3c(c(O)c21)OCO3 [Pancratistatin] | – | – | – | – | – | pIC50 ([1]; Homo sapiens, Fibroblast, read-out: IC50 values HDF): 4.70; pIC50 ([2]; Homo sapiens, HMVEC, read-out: IC50 values HMVEC): 4.60 to 4.70
CC(=O)O[C@H]1C(=O)[C@@]2(C)[C@H]([C@H](OC(=O)c3ccccc3)[C@]3(O)C[C@H](OC(=O)[C@H](O)[C@@H](NC(=O)c4ccccc4)c4ccccc4)C(C)=C1C3(C)C)[C@]1(OC(C)=O)CO[C@@H]1C[C@@H]2O [taxol, reference compound] | – | – | – | – | – | clonogenic toxicity to HMVEC after 1 hour exposure versus 6 hours [2]: did not induce maximum toxicity
CC(=O)O[C@@]12CO[C@@H]1C[C@H](O)[C@@]1(C)C(=O)[C@H](O)C3=C(C)[C@@H](OC(=O)[C@H](O)[C@@H](NC(=O)OC(C)(C)C)c4ccccc4)C[C@@](O)([C@@H](OC(=O)c4ccccc4)[C@H]21)C3(C)C [taxotere, reference compound] | – | – | – | – | – | clonogenic toxicity to HMVEC after 1 hour exposure versus 6 hours [2]: did not induce maximum toxicity
Amino Combretastatin A4 Phosphoroamidate | – | 4.70 to 4.82 | – | 5.00 to 5.10 | – | –
Combretastatin A1 Na2PO4 | – | 5.00 to 5.30 | – | 4.82 to 5.00 | – | –
Combretastatin A1 Nicotinamide PO4 | – | < 5.00 | – | 4.82 to 5.00 | – | –
Combretastatin A1 Piperazine PO4 | – | 5.70 to 6.00 | – | 4.82 to 5.00 | – | –
Pancratistatin Na2PO4 | – | 4.10 to 4.22 | – | 4.60 to 4.70 | – | –
